The source of these data is patent publication US9926318B2, “Tetracyclic autotaxin inhibitors” (PharmAkea, Inc., priority 2013, dated 2018).

The target of the experiment is human autotaxin (ATX) (Homo sapiens (Human), UniProt Q13822). Briefly: Human autotaxin assay (choline release from LPC, Hep3B conditioned media). Particulars: concentrated conditioned media from Hep3B cells, LPC substrate. It is filed as biochemical. The method, then:
ATX activity is assayed in concentrated conditioned media from Hep3B human hepatocellular carcinoma cells by measuring the amount of choline released from the substrate, lysophosphatidylcholine (LPC) as it is cleaved to LPA. Conditioned media is collected from confluent Hep3B cells and concentrated 20-fold using Centriprep-30 filter devices (Millipore). […] 100 μl of a color mix containing 4.5 mM 4-aminoantipyrine, 2.7 mM N-ethyl-N-(2-hydroxy-3-sulfopropyl)-m-toluidine, 21 units/ml horseradish peroxidase and 3 units/ml choline oxidase in 50 mM Tris, pH 8, 4.5 mM MgCl2 is added and the incubation continued for 15 minutes at room temperature before reading the absorbance at 555 nm.

For `COc1ccc(Cn2c3c(c4ccccc42)C[C@H]2C(=O)N(CCCC(=O)O)C(=O)N2C3)cn1` [Compound 1-11, (S)-4-(6-((6-methoxypyridin-3-yl)methyl)-1,3-dioxo-11,11a-dihydro-1H-imidazo[1′,5′:1,6]pyrido[3,4-b]indol-2(3H,5H,6H)-yl)butanoic acid], the half-inhibitory concentration (IC50) is below 500 nM.

Consider `O=C(O)CCN1C(=O)[C@@H]2Cc3c(n(Cc4ccc(Cl)cc4Cl)c4ccccc34)CN2C1=O` [Compound 1-132, (S)-3-(6-(2,4-dichlorobenzyl)-1,3-dioxo-11,11a-dihydro-1H-imidazo[1′,5′:1,6]pyrido[3,4-b]indol-2(3H,5H,6H)-yl)propanoic acid], for which the half-inhibitory concentration (IC50) was below 500 nM.

Take `O=C(O)CCN1C(=O)N2Cc3c(c4ccccc4n3Cc3ccc(F)cc3)C[C@H]2C1=S` [Compound 1-141, (S)-3(6-(4-fluorobenzyl)-3-oxo-1-thioxo-5,6,11,11a-tetrahydro-1H-imidazo[1′,5′:1,6]pyrido[3,4-b]indol-2(3H)-yl)propanoic acid]: the IC50 was above 1000 nM.

Turning to `O=C(O)CCN1CC2Cc3c(n(Cc4ccc(F)cc4)c4ccccc34)CN2C1=O` (stereo not shown) [Compound 1-21, 3-(6-(4-fluorobenzyl)-3-oxo-11,11a-dihydro-1H-imidazo[1′,5′:1,6]pyrido[3,4-b]indol-2(3H,5H,6H)-yl)propanoic acid], the IC50 was below 500 nM.

In turn, `CC(C)(CCN1C(=O)[C@@H]2Cc3c(n(Cc4ccc(F)cc4)c4ccccc34)CN2C1=O)C(=O)O` [Compound 1-39, (S)-4-(6-(4-fluorobenzyl)-1,3-dioxo-5,6,11,11a-tetrahydro-1H-imidazo[1′,5′:1,6]pyrido[3,4-b]indol-2(3H)-yl)-2,2-dimethylbutanoic acid] yielded an IC50 below 500 nM.

Compound `O=C1NCC2Cc3c(n(Cc4ccc(F)cc4)c4ccccc34)CN12` (racemic) [Compound 1-13, 6-(4-fluorobenzyl)-5,6,11,11a-tetrahydro-1H-imidazo[1′,5′:1,6]pyrido[3,4-b]indol-3(2H)-one] had a concentration for half-maximal inhibition (IC50) below 500 nM.

`O=C(O)CCN1C(=O)[C@@H]2Cc3c(n(Cc4ccc(Cl)nc4)c4ccccc34)CN2C1=O` [Compound 1-84, (S)-3-(6-((6-chloropyridin-3-yl)methyl)-1,3-dioxo-5,6,11,11a-tetrahydro-1H-imidazo[1′,5′:1,6]pyrido[3,4-b]indol-2(3H)-yl)propanoic acid] had a 50% inhibitory concentration (IC50) below 500 nM.

In the case of `O=C(O)CCN1C(=O)[C@@H]2Cc3c(n(Cc4cnc(C(F)(F)F)s4)c4ccccc34)CN2C1=O` [Compound 1-102, (S)-3-(1,3-dioxo-6-((2-(trifluoromethyl)thiazol-5-yl)methyl)-11,11a-dihydro-1H-imidazo[1′,5′:1,6]pyrido[3,4-b]indol-2(3H,5H,6H)-yl)propanoic acid], the half-inhibitory concentration (IC50) is below 500 nM.

Regarding `O=C(O)CN1C(=O)C2Cc3c(n(Cc4ccc(F)cc4)c4ccccc34)CN2C1=O` (stereo not shown) [Compound 1-19, 2-(6-(4-fluorobenzyl)-1,3-dioxo-5,6,11,11a-tetrahydro-1H-imidazo[1′,5′:1,6]pyrido[3,4-b]indol-2(3H)-yl)acetic acid], the IC50 was below 500 nM.

`CN1CC2Cc3c(n(Cc4ccc(F)cc4)c4ccccc34)CN2C1=O` (racemic) [Compound 1-14, 6-(4-fluorobenzyl)-2-methyl-5,6,11,11a-tetrahydro-1H-imidazo[1′,5′:1,6]pyrido[3,4-b]indol-3(2H)-one]: the IC50 was below 500 nM.

The compound `O=C(O)CCCN1C(=O)[C@@H]2Cc3c(n(Cc4ccc(F)cc4)c4cc(Cl)ccc34)CN2C1=O` [Compound 1-27, (S)-4-(8-chloro-6-(4-fluorobenzyl)-1,3-dioxo-5,6,11,11a-tetrahydro-1H-imidazo[1′,5′:1,6]pyrido[3,4-b]indol-2(3H)-yl)butanoic acid] had a 50% inhibitory concentration (IC50) above 1000 nM.

For the compound `O=C1NC(=O)N2Cc3c(c4ccccc4n3Cc3ccc(F)cc3)C[C@@H]12` [Compound 1-130, (S)-6-(4-fluorobenzyl)-5,6,11,11a-tetrahydro-1H-imidazo[1′,5′:1,6]pyrido[3,4-b]indole-1,3(2H)-dione], the IC50 is below 500 nM.

`CC1(C)c2c(n(Cc3ccc(F)cc3)c3ccccc23)CN2C(=O)NC(=O)C21` (single isomer, unassigned) [A110 ent A, 6-(4-fluorobenzyl)-11,11-dimethyl-5,6,11,11a-tetrahydro-1H-imidazo[1′,5′:1,6]pyrido[3,4-b]indole-1,3(2H)-dione] gave an IC50 below 500 nM.

As for `O=C(O)CCN1C(=O)C2Cc3c(n(Cc4ccc(F)cc4)c4ncccc34)CN2C1=O` (single isomer, unassigned; entb) [C114 entB, 3-{8-[(4-fluorophenyl)methyl]-12,14-dioxo-6.8.11.13-tetraazatetracyclo[7.7.0.02, 7.011,15]hexadeca-1(9),2(7),3,5-tetraen-13-yl}propionic acid], the IC50 is below 500 nM.

For the compound `CC1(C)c2c(n(Cc3ccc(F)cc3)c3ncccc23)CN2C(=O)N(CCC(=O)O)C(=O)C21` (stereo not shown) [Compound C11, 3-{8-[(p-fluorophenyl)methyl]-16,16-dimethyl-12,14-dioxo-6.8.11.13-tetrazatetracyclo[7.7.0.02,7.011,15]hexadeca-1(9),2(7),3,5-tetraene-13-yl}propionic acid], the IC50 was below 500 nM.

`CC(C)(CC(=O)O)CN1C(=O)[C@@H]2Cc3c(n(Cc4ccc(F)cc4)c4ccccc34)CN2C1=O` [Compound 1-42, (S)-4-(6-(4-fluorobenzyl)-1,3-dioxo-5,6,11,11a-tetrahydro-1H-imidazo[1′,5′:1,6]pyrido[3,4-b]indol-2(3H)-yl)-3,3-dimethylbutanoic acid]: the half-maximal inhibitory concentration (IC50) is below 500 nM.

In the case of `COc1ccc(Cn2c3c(c4ccccc42)C[C@H]2C(=O)N(CCC(=O)O)C(=O)N2C3)cn1` [Compound 1-12, (S)-3-(6-((6-methoxypyridin-3-yl)methyl)-1,3-dioxo-11,11a-dihydro-1H-imidazo[1′,5′:1,6]pyrido[3,4-b]indol-2(3H,5H,6H)-yl)propanoic acid], the IC50 was below 500 nM.

With `N#CCN1C(=O)C2Cc3c(n(Cc4ccc(F)cc4)c4ccccc34)CN2C1=O` (racemic) [Compound 1-139, 2-(6-(4-fluorobenzyl)-1,3-dioxo-5,6,11,11a-tetrahydro-1H-imidazo[1′,5′:1,6]pyrido[3,4-b]indol-2(3H)-yl)acetonitrile], the IC50 is below 500 nM.

On to `CC12Cc3c(n(Cc4ccc(F)cc4)c4ccccc34)CN1C(=O)N(CCC(=O)O)C2=O` (stereo not shown) [Compound A113, 3-(6-(4-fluorobenzyl)-11a-methyl-1,3-dioxo-11,11a-dihydro-1H-imidazo[1′,5′:1,6]pyrido[3,4-b]indol-2(3H,5H,6H)-yl)propanoic acid], for which the IC50 was above 1000 nM.

`O=C1NC(=O)N2Cc3c(c4cccnc4n3Cc3ccc(F)cc3)CC12` (stereo not shown) [Compound C109] showed an IC50 below 500 nM.

As for `O=C(O)CCCN1C(=O)[C@H]2Cc3c(n(Cc4ccc(F)cc4)c4ccccc34)CN2C1=O` [Compound 1-3, (R)-4-(6-(4-fluorobenzyl)-1,3-dioxo-11,11a-dihydro-1H-imidazo[1′,5′:1,6]pyrido[3,4-b]indol-2(3H,5H,6H)-yl)butanoic acid], the concentration for half-maximal inhibition (IC50) is below 500 nM.

Turning to `O=C(O)CCN1C(=O)[C@@H]2Cc3c(n(Cc4ccc(Cl)cc4F)c4ccccc34)CN2C1=O` [Compound 1-133, (S)-3-(6-(4-chloro-2-fluorobenzyl)-1,3-dioxo-11,11a-dihydro-1H-imidazo[1′,5′:1,6]pyrido[3,4-b]indol-2(3H,5H,6H)-yl)propanoic acid], the concentration for half-maximal inhibition (IC50) is below 500 nM.
